According to patent US9662318B2, “Bitopic muscarinic agonists and antagonists and methods of synthesis and use thereof” (BARRY UNIVERSITY, INC., priority 2012, dated 2017):
Where two headings read alike, the source gives them in different places.

Key:
[1] = target: T1, M1 muscarinic receptor (Homo sapiens, UniProt P11229); experiment: biochemical; format: binding; conditions: competition with [^3H]QNB
T1 sequence (P11229 1-460): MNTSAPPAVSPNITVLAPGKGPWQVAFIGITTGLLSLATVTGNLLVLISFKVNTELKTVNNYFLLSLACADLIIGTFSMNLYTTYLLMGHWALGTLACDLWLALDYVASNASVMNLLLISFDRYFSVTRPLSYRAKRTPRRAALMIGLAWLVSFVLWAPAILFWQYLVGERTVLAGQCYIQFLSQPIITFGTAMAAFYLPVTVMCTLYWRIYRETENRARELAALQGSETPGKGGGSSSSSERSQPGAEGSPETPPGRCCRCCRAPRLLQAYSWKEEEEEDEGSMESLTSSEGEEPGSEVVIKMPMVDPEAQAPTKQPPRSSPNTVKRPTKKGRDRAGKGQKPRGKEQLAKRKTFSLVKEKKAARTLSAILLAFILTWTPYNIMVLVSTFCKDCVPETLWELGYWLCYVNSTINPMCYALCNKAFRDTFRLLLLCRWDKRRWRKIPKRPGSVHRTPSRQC

[2] = target: T2, M5 muscarinic receptor (Homo sapiens, UniProt P08912); experiment: biochemical; format: binding; conditions: competition with [^3H]QNB
T2 construct: host or cells: CHO (Chinese hamster ovary) cells, stably transfected
T2 sequence (P08912 1-532): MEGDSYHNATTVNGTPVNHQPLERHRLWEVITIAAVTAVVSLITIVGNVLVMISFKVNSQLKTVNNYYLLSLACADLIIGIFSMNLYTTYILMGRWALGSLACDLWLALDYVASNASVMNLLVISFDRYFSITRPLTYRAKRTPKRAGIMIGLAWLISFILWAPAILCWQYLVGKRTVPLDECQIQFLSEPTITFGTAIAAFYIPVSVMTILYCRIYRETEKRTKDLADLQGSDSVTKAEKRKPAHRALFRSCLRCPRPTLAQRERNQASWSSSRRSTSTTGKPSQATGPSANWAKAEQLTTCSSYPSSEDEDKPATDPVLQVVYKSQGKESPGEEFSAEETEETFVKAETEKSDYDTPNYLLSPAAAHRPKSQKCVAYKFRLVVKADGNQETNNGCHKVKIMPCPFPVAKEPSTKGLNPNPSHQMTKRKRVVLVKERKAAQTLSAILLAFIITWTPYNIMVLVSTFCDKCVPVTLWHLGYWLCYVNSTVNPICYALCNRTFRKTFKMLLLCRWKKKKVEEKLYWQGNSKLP

[3] = target: T3, M4 muscarinic receptor (Homo sapiens, UniProt P08173); experiment: Accumulation of inositol phosphates in CHO cells; format: cell-based; conditions: M4; ligand 0.1 mM; no carbachol
T3 construct: host or cells: Chinese hamster ovary cells
T3 sequence (P08173 1-479): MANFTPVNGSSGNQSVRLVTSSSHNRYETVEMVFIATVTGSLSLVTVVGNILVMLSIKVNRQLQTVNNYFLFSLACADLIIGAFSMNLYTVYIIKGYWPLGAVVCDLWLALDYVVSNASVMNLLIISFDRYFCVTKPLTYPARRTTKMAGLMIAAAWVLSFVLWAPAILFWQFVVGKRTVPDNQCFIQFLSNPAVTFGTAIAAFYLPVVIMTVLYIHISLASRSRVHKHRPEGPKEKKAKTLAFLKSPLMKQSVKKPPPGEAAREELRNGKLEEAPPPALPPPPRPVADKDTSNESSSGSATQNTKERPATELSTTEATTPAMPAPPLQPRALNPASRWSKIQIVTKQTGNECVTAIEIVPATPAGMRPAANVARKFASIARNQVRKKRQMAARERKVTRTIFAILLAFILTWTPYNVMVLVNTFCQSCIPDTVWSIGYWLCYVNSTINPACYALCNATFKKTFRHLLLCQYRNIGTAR
Experimental: Chinese hamster ovary cells stably transfected with the genes of human variants of muscarinic receptors were purchased from Missouri S&T cDNA Resource Center (Rolla, Mo., USA). […] Cells were grown to confluency in 75 cm^2 flasks in Dulbecco's modified Eagle's medium supplemented with 10% fetal bovine serum and 2 million of cells were subcultured to 100 mm Petri dishes. Medium was supplemented with 5 mM butyrate for the last 24 hours of cultivation to increase receptor expression.
Inositolphosphates formation was determined in cells pre-labeled overnight by 0.5 μM [^3H]myo-inositol in 0.3 mL of DMEM (3 μCi/ml) at 37° C. […] Incubation was stopped by removal of incubation buffer and addition 0.2 mL 20% trichloracetic acid (TCA). After 1 h incubation at 4° C., 100 μL, of TCA extracts were taken for measurement. Rest of the TCA was removed, and TCA precipitates were washed with 200 μL TCA and dissolved in 200 μL of 1 M NaOH. After 1 h incubation at 4° C., 100 μL, of NaOH lysates were taken for measurement. Radioactivity in TCA extracts and NaOH lysates were determined by liquid scintillation counting. The rate of inositolphosphates accumulation was calculated as a percentage of the soluble (released) inositolphosphates from the total incorporated radioactivity (sum of radioactivity in NaOH lysates and TCA extracts).
EC50 values are expressed as negative logarithms and EMAX values as folds over basal, Table 7.

[4] = target: T3, M4 muscarinic receptor; experiment: Competition with [3H]NMS (equilibrium binding, CHO membranes); conditions: for IC50: competition with [^3H]NMS
Experimental: (§1) All radioligand binding experiments were optimized and carried out as described earlier. Briefly, membranes were incubated in 96-well plates at 30° C. in the incubation medium described. […] Dissociation was initiated by addition of atropine to final concentration of 5 Tested ligands in final concentration of 100 μM were added concurrently with atropine. Incubations were terminated by filtration through Whatman GF/C glass fiber filters (Whatman) using a Brandel cell harvester (Brandel, Gaithersburg, Md., USA). Filters were dried in vacuum for 1 h while heated at 80° C. and then solid scintillator Meltilex A was melted on filters (105° C., 90 s) using a hot plate. The filters were cooled and counted in Wallac Microbeta scintillation counter.
(§2) Inhibition constant KI was calculated as: […]

[5] = target: T2, M5 muscarinic receptor; experiment: as above; conditions: for IC50: competition with [^3H]NMS
Experimental: as §1, §2

[6] = target: T4, M3 muscarinic receptor (Homo sapiens, UniProt P20309); experiment: as above; conditions: for IC50: competition with [^3H]NMS
T4 construct: host or cells: Chinese hamster ovary cells
T4 sequence (P20309 whole entry): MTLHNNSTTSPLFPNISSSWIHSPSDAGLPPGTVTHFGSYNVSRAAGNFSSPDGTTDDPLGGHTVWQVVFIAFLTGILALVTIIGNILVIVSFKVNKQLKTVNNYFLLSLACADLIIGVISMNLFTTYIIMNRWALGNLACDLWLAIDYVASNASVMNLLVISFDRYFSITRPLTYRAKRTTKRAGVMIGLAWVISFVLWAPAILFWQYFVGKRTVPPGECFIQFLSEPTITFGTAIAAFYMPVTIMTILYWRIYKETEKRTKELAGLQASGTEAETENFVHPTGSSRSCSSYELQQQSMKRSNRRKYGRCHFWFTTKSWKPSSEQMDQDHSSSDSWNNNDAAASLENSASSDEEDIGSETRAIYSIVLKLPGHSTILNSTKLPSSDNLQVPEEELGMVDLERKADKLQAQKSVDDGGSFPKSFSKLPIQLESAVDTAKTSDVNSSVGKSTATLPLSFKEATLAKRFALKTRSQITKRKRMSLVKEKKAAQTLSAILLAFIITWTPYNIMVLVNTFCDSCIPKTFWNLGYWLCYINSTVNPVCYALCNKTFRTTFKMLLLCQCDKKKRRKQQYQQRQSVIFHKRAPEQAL
Experimental: as §1, §2

[7] = target: T1, M1 muscarinic receptor; experiment: as above; conditions: for IC50: competition with [^3H]NMS
Experimental: as §1, §2

[8] = M1, average of 3, read-out: avg IC50
[9] = M1, experiment 1, read-out: IC50—1
[10] = M1, experiment 2, read-out: IC50—2
[11] = M1, experiment 3, read-out: IC50—3
[12] = M5, average of 3, read-out: avg IC50
[13] = M5, experiment 1, read-out: IC50—1
[14] = M5, experiment 2, read-out: IC50—2
[15] = M5, experiment 3, read-out: IC50—3

CCCCOc1ccc(C(=O)OCC[N+]2(C)CCCCC2)cc1.[I-] [JB-D4, 2-(N-piperidineethyl) p-butoxybenzoate N-methyl iodide] gave a Ki ([1]; M1) of 1.04 µM, an IC50 [1, 8] of 8.78 µM and an IC50 [1, 9] of 8.72 µM. It also gave an IC50 [1, 10] of 9.42 µM, an IC50 [1, 11] of 8.19 µM and a Ki ([2]; M5) of 0.827 µM. It also gave an IC50 [2, 12] of 6.61 µM, an IC50 [2, 13] of 5.73 µM and an IC50 [2, 14] of 6.76 µM. The IC50 [2, 15] was 7.34 µM, the “Effect of ligands on basal activity (accumulation of inositol phosphates as percent of accumulation in the absence of the ligand)” value [3] was 98 ± 4% and the IC50 ([4]; M4, average of 3, read-out: avg IC50) was 41.8 µM. The IC50 ([4]; M4, experiment 1, read-out: IC50—1) was 43.4 µM, the IC50 ([4]; M4, experiment 2, read-out: IC50—2) was 42 µM and the IC50 ([4]; M4, experiment 3, read-out: IC50—3) was 40 µM. For the same compound, the Ki ([4]; read-out: KI) was 7.54 µM, the IC50 [5, 12] was 12.5 µM and the IC50 [5, 13] was 12.5 µM. It also gave an IC50 [5, 14] of 11.2 µM, an IC50 [5, 15] of 13.7 µM and a Ki ([5]; read-out: KI) of 2.88 µM. For the same compound, the IC50 ([6]; M3, average of 3, read-out: avg IC50) was 16.9 µM, the IC50 ([6]; M3, experiment 1, read-out: IC50—1) was 16.6 µM and the IC50 ([6]; M3, experiment 2, read-out: IC50—2) was 17.2 µM. It also gave an IC50 ([6]; M3, experiment 3, read-out: IC50—3) of 16.9 µM, a Ki ([6]; read-out: KI) of 3.16 µM and an IC50 [7, 8] of 14.4 µM. For the same compound, the IC50 [7, 9] was 14.3 µM, the IC50 [7, 10] was 13.8 µM and the IC50 [7, 11] was 15.1 µM. For the same compound, the Ki ([7]; read-out: KI) was 2.88 µM.
